PMC6018554, “2-[2-(4-(trifluoromethyl)phenylamino)thiazol-4-yl]acetic acid (Activator-3) is a potent activator of AMPK” (Scientific Reports, 2018)

Test system: AMPK
Assay: Cell based ELISA (pAMPK/pACC) in primary rat hepatocytes
Method: Primary rat hepatocytes were isolated by collagenase (type4, Invitrogen: Cat# 17104-019) digestion as described previously. Digested cells were suspended in DMEM supplemented with 10% FBS. Cells were seeded into 96-well plate (20,000 cells per well) pre-coated with collagen (2 mg/ml). As the cells were metabolically active, medium was changed after cells have attached and allowed to incubate overnight before performing cell based assay.
Approximately 40,000 cells per well were seeded into a 96 well plate (Biofil, cat# TCP011096) and incubated overnight at 37 °C and 5% CO2. After the seeded cells reached 80% confluence, cells were treated with Activator-3 with different working concentrations and 500 μM AICAR (Caymen chemicals, cat# 10010241-10) and incubated for 30 min to 2 h (depending upon the primary antibody used) at 37 °C and 5% CO2. Medium was aspirated and fixed with 4% of formaldehyde solution (diluted in 1X PBS) incubated for 1 h at 4 °C on shaker. Cells were washed with tween 20 (diluted in 1X PBS) on shaker for 5 minutes at room temperature (3 times). […] To quantify the bound primary antibody, cells were probed with a HRP conjugated secondary anti-rabbit antibody (1:2000 dilution, Bio-Rad; Cat# 170-6515) diluted in 1X PBST and incubated 2 h at RT on rocker. […] This reaction is stopped by adding 2 N H2SO4 and plate was immediately read at 450 nm using UV–Vis Spectrophotometer.

For O=C(O)Cc1csc(Nc2ccc(C(F)(F)F)cc2)n1 [Activator-3, 2-[2-(4-(trifluoromethyl)phenylamino)thiazol-4-yl]acetic acid], the EC50 was ~28 nM.
